Here are results for three molecules from article PMC7246999 (International Journal of Molecular Sciences, 2020).

The target in series [1] is T1, hMPC-1 (Homo sapiens, UniProt Q9Y5U8).
T1 construct: HA tag (hemagglutinin, […]) (N); made in house; host or cells: Sf9 (Spodoptera frugiperda), baculovirus
T1 sequence (Q9Y5U8 1-109): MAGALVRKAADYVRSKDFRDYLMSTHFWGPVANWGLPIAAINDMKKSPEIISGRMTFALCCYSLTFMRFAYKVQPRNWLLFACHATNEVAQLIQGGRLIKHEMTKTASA
Nature of the series: Fluorescence quenching binding assay, purified hMPC-1 homo-complex. As to conditions: hMPC-1 in DDM micelles, room temperature, fluorescence at 338 nm, n = 3; read-out: Dissociation constant (Kd). Here is the method:
(§1) In vitro fluorescence quenching was performed to measure the binding affinity of the purified hMPCs to their ligands, such as the pyruvate substrate and inhibitors, to validate their function (Figure 4). First, the equilibrium dissociation constants (Kd) of the hMPCs to pyruvate substrates were measured (Figure 4A,D).
(§2) A fluorescence analysis was performed using a LS55 spectrofluorophotometer at room temperature (Perkin Elmer, Waltham, MA, USA). The protein sample was prepared in buffer containing 50 mM Tris-HCl, 300 mM NaCl, and 0.05% DDM with a final concentration of 0.07 mg/ mL. […] Pyruvate was titrated to hMPC-1, hMPC-2, and hMPC-1/hMPC-2 up to 200mM concentrations. In the case of […], it was titrated to hMPC-1, hMPC-2, and hMPC-1/hMPC-2 up to 300uM, 200uM, 200uM concentrations, respectively. Pioglitazone was titrated to hMPC-1, hMPC-2, and hMPC-1/hMPC-2 up to 400uM, 500uM, and 400uM concentrations, respectively. All data were collected in the wavelength range of 270–450 nm (shown from 300 nm to 450 nm only) with a 1-min delay for each titration point. The dissociation constants were calculated by the maximum intensities in the 338 nm wavelength of each spectrum.

Series [2] addresses T2, hMPC-2 (Homo sapiens, UniProt O95563).
T2 construct: HA tag (hemagglutinin, […]) (N, cleaved yes); 10x His tag (N, cleaved yes); made in house; host or cells: Sf9 (Spodoptera frugiperda), baculovirus
T2 sequence (O95563 1-127): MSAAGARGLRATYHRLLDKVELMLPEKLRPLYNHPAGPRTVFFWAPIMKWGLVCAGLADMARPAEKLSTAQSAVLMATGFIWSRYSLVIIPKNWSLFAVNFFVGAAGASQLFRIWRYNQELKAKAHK
As to the kind of experiment: Fluorescence quenching binding assay, purified hMPC-2 homo-complex. The conditions noted are these: hMPC-2 in DDM micelles, room temperature, fluorescence at 338 nm, n = 3; read-out: Dissociation constant (Kd). Here is the method:
as §1, §2

Series [3] deals with T3, hMPC-1/hMPC-2 (Homo sapiens, UniProt O95563+Q9Y5U8).
T3 construct: HA tag (hemagglutinin, […]) (N); HA tag (hemagglutinin, […]) (N, cleaved yes); 10x His tag (N, cleaved yes); made in house; host or cells: Sf9 (Spodoptera frugiperda), baculovirus; proteins purified singly, mixed 1:1, then FLAG-resin
T3 sequence (Q9Y5U8 1-109): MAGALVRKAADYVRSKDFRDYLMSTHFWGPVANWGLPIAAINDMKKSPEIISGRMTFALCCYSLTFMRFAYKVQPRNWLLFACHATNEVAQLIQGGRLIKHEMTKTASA
T3 sequence (O95563 1-127): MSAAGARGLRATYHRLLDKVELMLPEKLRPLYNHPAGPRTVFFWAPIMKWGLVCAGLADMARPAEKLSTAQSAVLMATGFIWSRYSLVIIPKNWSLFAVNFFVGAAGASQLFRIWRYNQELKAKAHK
Nature of the series: Fluorescence quenching binding assay, purified hMPC-1/hMPC-2 hetero-complex. As to conditions: for Kd: hMPC-1/hMPC-2 in DDM micelles, room temperature, fluorescence at 338 nm, n = 3, read-out: Dissociation constant (Kd). Here is the method: as §1, §2

Series [4] concerns the molecule itself. As to the kind of experiment: SEC; analytical SEC, HiLoad 16/600 Superdex 200 pg, 50 mM Tris-HCl (pH 7), 300 mM NaCl, 0.05% (w/v) DDM, 1 mL/min; proteins run alone or mixed 1:1 (mass ratio) at room temperature for 1 h; fractions on SDS-PAGE.

The Kd is the concentration at which binding is half-saturated.

On to `CC(=O)C(=O)O` [Pyruvate], for which the equilibrium dissociation constant (Kd) in series [1] was found to be 12 ± 0.77 mM; in series [2] it was 12.9 ± 0.9 mM; in series [3] it was 8.91 ± 1.09 mM. For the same molecule, in series [3] (hMPC-1/hMPC-2 hetero-complex higher than homo-complex), the “Binding affinity of hetero-complex relative to homo-complex” value came to 1.5 fold.

With `CCc1ccc(CCOc2ccc(CC3SC(=O)NC3=O)cc2)nc1` (centres unmarked) [Pioglitazone], the Kd came out at 0.0841 ± 0.0103 mM in series [1], 0.0993 ± 0.0145 mM in series [2] and 0.0603 ± 0.00611 mM in series [3].

B1: human mitochondrial pyruvate carrier 1 (hMPC-1), C-terminally tagged (natural protein, UniProt Q9Y5U8 1-109, looked up)
chain: MAGALVRKAADYVRSKDFRDYLMSTHFWGPVANWGLPIAAINDMKKSPEIISGRMTFALCCYSLTFMRFAYKVQPRNWLLFACHATNEVAQLIQGGRLIKHEMTKTASA
notes: human mitochondrial pyruvate carrier 1 (hMPC-1); Printed mass of His-hMPC-1: 15.9 kDa; also called His-hMPC-1; human MPC-1; source: Sf9 (baculovirus), purified in DDM (TALON IMAC, gel filtration); also co-expressed with hMPC-2 in Sf9 by co-infection; not shown: FLAG, C-terminal, kept; 10x His, C-terminal, kept
Take B1: in series [4], the binding result is listed as “binds”.
